Test results from patent publication US7741124B2, “Detection procedures for fibrinogen and/or fibrinogen derivatives” (priority 2003, dated 2010).

Columns and labels:
[1] = target: T1, fibrinogen in human plasma (Homo sapiens, UniProt P02671+P02675+P02679); assay: Inactivation of fibrinogen by vancomycin or chloramine-T (FIFTA read-out); format: biochemical
T1 construct: 200 μl of 256% of norm active fibrinogen in P-Pool; from tissue; host or cells: pooled citrated human patient plasma (P-Pool / Fbgen-Pool)
T1 sequence (P02671 20-629 isoform P02671-2 limits assumed): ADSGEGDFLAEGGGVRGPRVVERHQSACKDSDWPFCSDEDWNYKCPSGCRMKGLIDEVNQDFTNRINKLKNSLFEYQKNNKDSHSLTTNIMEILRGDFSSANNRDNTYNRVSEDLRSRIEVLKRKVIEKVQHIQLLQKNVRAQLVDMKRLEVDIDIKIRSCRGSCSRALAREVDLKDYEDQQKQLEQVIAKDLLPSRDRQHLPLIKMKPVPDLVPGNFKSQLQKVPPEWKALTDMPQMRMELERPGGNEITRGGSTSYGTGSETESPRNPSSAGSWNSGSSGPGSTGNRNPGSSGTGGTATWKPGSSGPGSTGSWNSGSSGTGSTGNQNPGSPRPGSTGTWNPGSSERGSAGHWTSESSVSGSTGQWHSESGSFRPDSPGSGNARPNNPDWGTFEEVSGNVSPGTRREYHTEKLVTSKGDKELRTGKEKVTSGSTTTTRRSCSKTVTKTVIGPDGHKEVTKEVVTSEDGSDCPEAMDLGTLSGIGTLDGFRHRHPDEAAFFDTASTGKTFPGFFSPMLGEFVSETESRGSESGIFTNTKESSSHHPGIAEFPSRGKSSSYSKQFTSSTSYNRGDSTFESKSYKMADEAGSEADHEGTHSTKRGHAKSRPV
T1 sequence (P02675 31-491): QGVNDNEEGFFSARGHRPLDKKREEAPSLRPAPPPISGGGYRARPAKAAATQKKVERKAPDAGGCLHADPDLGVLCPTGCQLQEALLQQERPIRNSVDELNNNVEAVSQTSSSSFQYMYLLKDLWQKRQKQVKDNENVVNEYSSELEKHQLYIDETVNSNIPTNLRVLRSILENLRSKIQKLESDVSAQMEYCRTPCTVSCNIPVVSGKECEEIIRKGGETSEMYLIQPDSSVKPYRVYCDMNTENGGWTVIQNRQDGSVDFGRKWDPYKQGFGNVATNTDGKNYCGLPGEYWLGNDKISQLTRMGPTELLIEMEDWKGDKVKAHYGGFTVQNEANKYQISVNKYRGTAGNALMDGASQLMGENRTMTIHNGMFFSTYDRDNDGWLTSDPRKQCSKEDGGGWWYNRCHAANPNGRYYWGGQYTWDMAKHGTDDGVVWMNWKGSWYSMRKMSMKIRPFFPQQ
T1 sequence (P02679 27-437 isoform P02679-2 limits assumed): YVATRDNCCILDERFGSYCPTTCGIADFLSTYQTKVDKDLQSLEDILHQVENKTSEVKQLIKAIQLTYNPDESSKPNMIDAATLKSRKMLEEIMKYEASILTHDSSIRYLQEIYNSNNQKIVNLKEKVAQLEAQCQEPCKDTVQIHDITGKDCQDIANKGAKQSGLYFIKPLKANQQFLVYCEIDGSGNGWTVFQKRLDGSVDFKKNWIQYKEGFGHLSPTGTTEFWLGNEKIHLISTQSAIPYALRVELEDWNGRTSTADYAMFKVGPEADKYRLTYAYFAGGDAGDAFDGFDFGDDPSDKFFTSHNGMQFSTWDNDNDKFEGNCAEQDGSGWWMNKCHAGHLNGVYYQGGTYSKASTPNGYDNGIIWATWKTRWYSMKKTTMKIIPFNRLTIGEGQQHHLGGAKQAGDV
Description: 200 μl of 256% of norm active fibrinogen in P-Pool were incubated with 25 μl 0-100 mM vancomycin or 0-100 mM chloramine-T® in aqua dest. for 15 min (37° C.). 50 μl samples of these reaction mixtures were withdrawn and incubated with 100 μl 200 mIU/ml thrombin, 400 μg/ml Polybrene®, 6% BSA-PBS. The results were standardized by simultaneous analysis of 144% of norm active fibrinogen in P-Pool.

fibrinogen = target: T2, fibrinogen (Homo sapiens, UniProt P02671+P02675+P02679); assay: FIATA optimization: turbidity in dependence of vancomycin concentration; format: biochemical
T2 construct: pooled patient plasma (P-Pool, n=32 single plasmas); from tissue; host or cells: pooled citrated patient plasma (P-Pool, Fbgen-Pool-Plasma)
T2 sequence (P02671 20-644 isoform P02671-2 limits assumed): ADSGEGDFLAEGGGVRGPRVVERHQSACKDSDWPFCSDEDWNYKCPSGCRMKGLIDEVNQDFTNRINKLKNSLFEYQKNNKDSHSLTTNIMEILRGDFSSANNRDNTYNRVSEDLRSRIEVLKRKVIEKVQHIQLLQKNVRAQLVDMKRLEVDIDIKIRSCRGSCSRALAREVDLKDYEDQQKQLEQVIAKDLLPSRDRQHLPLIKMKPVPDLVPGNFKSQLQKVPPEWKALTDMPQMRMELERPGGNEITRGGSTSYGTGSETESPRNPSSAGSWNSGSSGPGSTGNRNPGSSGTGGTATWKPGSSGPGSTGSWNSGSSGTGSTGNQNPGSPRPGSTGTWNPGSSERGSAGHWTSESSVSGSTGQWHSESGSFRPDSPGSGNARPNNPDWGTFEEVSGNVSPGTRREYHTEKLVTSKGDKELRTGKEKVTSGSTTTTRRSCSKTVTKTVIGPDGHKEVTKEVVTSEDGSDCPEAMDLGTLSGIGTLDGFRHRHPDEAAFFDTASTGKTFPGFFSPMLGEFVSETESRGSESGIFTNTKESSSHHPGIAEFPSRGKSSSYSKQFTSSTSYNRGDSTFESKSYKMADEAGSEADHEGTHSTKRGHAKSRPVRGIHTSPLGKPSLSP
T2 sequence (P02675 31-491): T1 sequence (P02675 31-491)
T2 sequence (P02679 27-437 isoform P02679-2 limits assumed): T1 sequence (P02679 27-437 isoform P02679-2 limits assumed)
Description: 50 μl P-Pool or 1:2 or 1:4 diluted (in 6% BSA-PBS) P-Pool were incubated with 50 μl 0-6.8 mM vancomycin in PBS. The turbidity increase at 405 nm was determined after 1 min (RT). 25 μl Fbgen-Pool (300% of norm; 8.4 g/l) were incubated with 125 μl 0.55 mM, 1.1 mM, or 2.2 mM vancomycin in PBS for 1 min (RT). Then the turbidity increase at 405 nm was determined.

## CN[C@H](CC(C)C)C(=O)N[C@H]1C(=O)N[C@@H](CC(N)=O)C(=O)N[C@H]2C(=O)N[C@H]3C(=O)N[C@H](C(=O)N[C@H](C(=O)O)c4cc(O)cc(O)c4-c4cc3ccc4O)[C@H](O)c3ccc(c(Cl)c3)Oc3cc2cc(c3O[C@@H]2O[C@H](CO)[C@@H](O)[C@H](O)[C@H]2O[C@H]2C[C@](C)(N)[C@H](O)[C@H](C)O2)Oc2ccc(cc2Cl)[C@H]1O [vancomycin]
[1]
  IC50: ~1000 µM
fibrinogen; 68.8 μmoles of vancomycin given to 25 μl 300% Fbgen-Pool
  fibrinogen concentration at saturation of turbidity increase: about 4 g/l
fibrinogen; 4.4 mM vancomycin in PBS, 0% fibrinogen standard in BSA
  own turbidity at 405 nm: < 50 mA
fibrinogen; 137.5-275 μmoles of vancomycin
  fibrinogen concentration at saturation of turbidity increase: 6 to 8 g/L
fibrinogen; vancomycin in plasma, RT
  stability of the turbidity increase: at least 10 min
